Assay results from article PMC11546719, “Immune Modulatory Profile of the Pateamines PatA and Des-Methyl Des-Amino PatA” (International Journal of Molecular Sciences, 2024).

Key:
[1] = tested on: Caco-2 cell barrier; assay: Transport assay, Caco-2 cell barrier; format: in vitro ADME; conditions: for Permeability / transport rate across Caco-2 cell barrier (in words): 4 and 24 h, PatA, DMDA 5, 50, 100 nM, controls 200 µM
Procedure: The transport assay was achieved as described previously. Briefly, 1 × 10^5 CaCo-2 or 5 × 10^4 Calu-3 cells in 300 µL medium were seeded on 24-well ThinCerts (pre-coated with FCS for 60 min) and in the lower compartment, 1 mL culture medium per well was added. The Caco-2 cell barrier was generated over 20 days and the Calu-3 barrier was generated over 14 days. DMDA (0 nM, 5 nM, 50 nM, 100 nM), PatA (0 nM, 5 nM, 50 nM, 100 nM), 200 µM famotidine, 200 µM lucifer yellow or 200 µM carbamazepine diluted in medium was added to the apical compartment and incubated for 4 h or 24 h. The medium from the basolateral and apical compartment was collected and stored at −20 °C and analyzed using LC-MS/MS. To obtain the transport rate, the drug amount in the basolateral compartment at 4 h or 24 h was related to the drug amount in the apical compartment (0 h).
The detailed method for the analysis of DMDA, PatA, carbamazepine and famotidine using LC-MS/MS is described in the Supplementary Materials.

[2] = tested on: TK6 cells; assay: Micronuclei assay; format: cell-based, human; conditions: 4 h incubation then 44 h
Procedure: The In-Vitro Micronuclei Plus assay (Becton Dickinson, Heidelberg, Germany) was performed as described by the supplier. Briefly, 2 × 10^4 TK6 cells were incubated with increasing concentrations of PatA, DMDA and silvestrol for 4 h. The cells were washed with PBS and incubated in fresh medium (without test substance) for 44 h. The cells were centrifuged (300× g) for 5 min, the […] and placed on ice for 20 min. Then, 50 µL of Complete Nucleic Acid Dye A Solution was added. The plate was placed on ice and exposed to visible light for 30 min. The Nucleic Acid Dye A solution was removed and the cells were washed with 0.15 mL of cold 1x Buffer Solution. An amount of 100 µL Complete Lysis Solution 1 was added, followed by gently mixing of the plate for 5 s and incubation of 1 h in the dark at 37 °C. Then, 100 µL Complete Lysis Solution 2 was added and incubated for 30 min in the dark at room temperature. The cells were analyzed via flow cytometry with the MACSQuant 10 (Miltenyi GmbH, Bergisch Gladbach, Germany).

[3] = tested on: Human primary T cells; assay: T cell activation with anti-CD3/anti-CD28; format: cell-based; conditions: for Number of activated cells (CD3+CD25+CD69+ cells) / Proliferation rate (CTV) / Surface marker expression (CD69, CD154, CD134, CD25, CD18, CD49a, CD54) / Apoptosis (zombie staining) / Cytokine release (IL-17A, IL-10, IFN-γ): activated T cells, 5 days; for Apoptosis (zombie staining): 0.25-0.5 nM; for Cytokine release (IL-17A, IL-10, IFN-γ): CBA; for Effect on the release of inflammatory markers, T Cells: summary table
Procedure: T cells were activated as previously described. Briefly, 1.75 × 10^5 T cells (stained with 0.2 µM CellTrace^TM violet (CTV) (ThermoFisher Scientific, Schwerte, Germany)) per well were pretreated with PatA (0.25, 0.5 nM), DMDA (0.25, 0.5 nM) or vehicle (DMSO) for 30 min in RPMI 1640 medium supplemented with 2 mM glutamine, 50 Units/mL IL-2, 1% penicillin/streptomycin and 10% FCS. Afterwards, they were seeded in CD3-coated 96-well plates and stimulated with 2 µg/mL CD28 for 5 days. CTV staining was performed according to the protocol of supplier.
Surface marker analysis was performed as described previously. Briefly, 1.5–2 × 10^5 cells of each sample were blocked with human FcR Blocking Reagent (15 min, 4 °C). A Zombie Aqua™ Fixable Viability Kit (1:500 dilution, BioLegend, San Diego, CA, USA) was used according to the manufactory protocol to discriminate living and dead cells. Afterwards, samples were stained with a mixture of different surface marker antibodies (15 min, 4 °C) and measured with MACSQuant® Analyzer 10 flow cytometer. For M1-/M2-MdMs anti-CD86, anti-CD14, anti-HLA-DR, anti-CD206, anti-CD80, anti-TREM2 and anti-CD163 were used. For T cells, anti-CD69, anti-CD54, anti-CD49a, anti-CD18, anti-CD134, anti-CD154, anti-CD3 and anti-CD25 were analyzed. For B cells, anti-CD27, anti-CD19 and anti-CD38 were applied. For T cell and B cell proliferation assay, freshly isolated T and B cells were stained with CTV and detected using flow cytometry. Naïve B cells were characterized as CD19^+CD27^lowCD38^med, memory B cells as CD19^+CD27^med CD38^low and plasma cells as CD27^+CD38^+ cells. M1 MdMs and M2 MdMs cell population was gated using FSC/SSC channel. T cells were gated as CD3^+CD25^+ positive cells. The geometric mean of the fluorescent intensity was calculated using FlowJo software v10 (Treestar, Ashland, […], USA). Fold induction of surface marker expression was calculated using the DMSO-treated cells as the control.
For determination of cytokine concentrations in the supernatant of humane immune cells, cytometric bead array (BD Biosciences, Heidelberg, Germany) for IL-10, IL-17, IL-8, IL-6, IFN-γ and CCL2 was used. For the detection of CCL18, CCL17, IgG, IgA and PGE2, an ELISA was performed. The cytometric bead arrays and the ELISAs were performed according to the protocol of the supplier.

Row | SMILES | Transport rate with Caco-2 cell barrier ([1]; 100 nM, 24 h) | Permeability / transport rate across Caco-2 cell barrier (in words) [1] | Genotoxic potential: micronuclei (clastogenic) and hypodiploid cells (aneugenic) [2] | Number of activated cells (CD3+CD25+CD69+ cells) [3] | Proliferation rate (CTV) [3] | Surface marker expression (CD69, CD154, CD134, CD25, CD18, CD49a, CD54) [3] | Apoptosis (zombie staining) [3] | Cytokine release (IL-17A, IL-10, IFN-γ) [3] | Effect on the release of inflammatory markers, T Cells [3] | Genotoxic potential: micronuclei (clastogenic) and hypodiploid cells (aneugenic) ([2]; 10 nM)
1 | CC(/C=C/C(C)=C/[C@@H]1Cc2nc(cs2)CCCCC(=O)O[C@@H](C)C/C(C)=C/C=C\C(=O)O1)=C\CN(C)C [DMDA, des-methyl des-amino pateamine A] | about 6% | exhibited low permeability | induced neither clastogenic nor aneugenic effects | did not influence the number of activated cells | Neither had any effects | Neither had any effects | showed no apoptotic effects | Neither had any effects | No effect | 
2 | CC(/C=C/C(C)=C/[C@@H]1Cc2nc(cs2)[C@@H](C)C[C@@H](N)CC(=O)O[C@@H](C)C/C(C)=C/C=C\C(=O)O1)=C\CN(C)C [PatA, pateamine A] |  | no permeability was detected |  | did not influence the number of activated cells | Neither had any effects | Neither had any effects | showed no apoptotic effects | Neither had any effects | No effect | induced clastogenic effects
